Laboratory results from ChEMBL document CHEMBL1201862, “PubChem BioAssay data set” (2004).
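Following 48 hours of exposure in 96-well plates, responses at five concentrations were used to interpolate endpoints linearly. GI50: concentration for 50% inhibition of growth.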 Active and inactive are the calls of the source. Rule as the data show it: active = GI50 up to about 1.1 µM and inactive = higher.

Key:
Experiment in all cases: NCI tumour cell line growth inhibition, 48 h
MCF7 = system: MCF7
786-0 = system: 786-0
HT-29 = system: HT-29
RPMI-8226 = system: RPMI-8226
SF-295 = system: SF-295
MDA-MB-231 = system: MDA-MB-231
LOX IMVI = system: LOX IMVI
NCI-H460 = system: NCI-H460
Malme-3M = system: Malme-3M
NCI/ADR-RES = system: NCI/ADR-RES
MOLT-4 = system: MOLT-4
SK-OV-3 = system: SK-OV-3
HCC 2998 = system: HCC 2998
RXF 393 = system: RXF 393
OVCAR-3 = system: OVCAR-3
CAKI-1 = system: CAKI-1
SK-MEL-28 = system: SK-MEL-28
SNB-75 = system: SNB-75
UO-31 = system: UO-31
UACC-257 = system: UACC-257
SN12C = system: SN12C
Hs-578T = system: Hs-578T
MDA-N = system: MDA-N
OVCAR-5 = system: OVCAR-5
DU-145 = system: DU-145
SR = system: SR
K562 = system: K562
SF-539 = system: SF-539
SF-268 = system: SF-268
SW-620 = system: SW-620
SNB-19 = system: SNB-19
HCT-116 = system: HCT-116
SK-MEL-5 = system: SK-MEL-5
OVCAR-4 = system: OVCAR-4
HL-60 = system: HL-60
U-251 = system: U-251
ACHN = system: ACHN
M14 = system: M14
NCI-H226 = system: NCI-H226
KM12 = system: KM12
CCRF-CEM = system: CCRF-CEM
PC-3 = system: PC-3
NCI-H23 = system: NCI-H23
HOP-62 = system: HOP-62
HCT-15 = system: HCT-15
COLO 205 = system: COLO 205
A549 = system: A549
BT-549 = system: BT-549
OVCAR-8 = system: OVCAR-8
MDA-MB-435 = system: MDA-MB-435
EKVX = system: EKVX
IGROV-1 = system: IGROV-1
UACC-62 = system: UACC-62
A498 = system: A498
TK-10 = system: TK-10
T47D = system: T47D
HOP-92 = system: HOP-92
NCI-H522 = system: NCI-H522
SK-MEL-2 = system: SK-MEL-2

COC(=O)C1Cc2cccc(C)c2C1 (configuration not stated)
GI50 (MCF7): 19.1 µM (inactive) | GI50 (786-0): > 100 µM (inactive) | GI50 (HT-29): > 100 µM (inactive) | GI50 (RPMI-8226): 93.5 µM (inactive) | GI50 (SF-295): > 100 µM (inactive) | GI50 (MDA-MB-231): > 100 µM (inactive) | GI50 (LOX IMVI): 42 µM (inactive) | GI50 (NCI-H460): > 100 µM (inactive) | GI50 (Malme-3M): > 100 µM (inactive) | GI50 (NCI/ADR-RES): 62.2 µM (inactive) | GI50 (MOLT-4): 46.6 µM (inactive) | GI50 (SK-OV-3): > 100 µM (inactive) | GI50 (HCC 2998): > 100 µM (inactive) | GI50 (RXF 393): > 100 µM (inactive) | GI50 (OVCAR-3): > 100 µM (inactive) | GI50 (CAKI-1): > 100 µM (inactive) | GI50 (SK-MEL-28): > 100 µM (inactive) | GI50 (SNB-75): > 100 µM (inactive) | GI50 (UO-31): > 100 µM (inactive) | GI50 (UACC-257): > 100 µM (inactive) | GI50 (SN12C): > 100 µM (inactive) | GI50 (Hs-578T): > 100 µM (inactive) | GI50 (MDA-N): > 100 µM (inactive) | GI50 (OVCAR-5): > 100 µM (inactive) | GI50 (DU-145): > 100 µM (inactive) | GI50 (SR): 79.3 µM (inactive) | GI50 (K562): 48.4 µM (inactive) | GI50 (SF-539): > 100 µM (inactive) | GI50 (SF-268): > 100 µM (inactive) | GI50 (SW-620): > 100 µM (inactive) | GI50 (SNB-19): > 100 µM (inactive) | GI50 (HCT-116): > 100 µM (inactive) | GI50 (SK-MEL-5): > 100 µM (inactive) | GI50 (OVCAR-4): > 100 µM (inactive) | GI50 (HL-60): 65.5 µM (inactive) | GI50 (U-251): 89.3 µM (inactive) | GI50 (ACHN): > 100 µM (inactive) | GI50 (M14): > 100 µM (inactive) | GI50 (NCI-H226): > 100 µM (inactive) | GI50 (KM12): > 100 µM (inactive) | GI50 (CCRF-CEM): 66.5 µM (inactive) | GI50 (PC-3): > 100 µM (inactive) | GI50 (NCI-H23): > 100 µM (inactive) | GI50 (HOP-62): > 100 µM (inactive) | GI50 (HCT-15): 37.3 µM | GI50 (COLO 205): > 100 µM (inactive) | GI50 (A549): > 100 µM (inactive) | GI50 (BT-549): > 100 µM (inactive) | GI50 (OVCAR-8): > 100 µM (inactive) | GI50 (MDA-MB-435): > 100 µM (inactive) | GI50 (EKVX): > 100 µM (inactive) | GI50 (IGROV-1): > 100 µM (inactive) | GI50 (UACC-62): > 100 µM (inactive) | GI50 (A498): > 100 µM (inactive) | GI50 (TK-10): > 100 µM (inactive) | GI50 (T47D): > 100 µM (inactive) | GI50 (HOP-92): > 100 µM (inactive) | GI50 (NCI-H522): 51.8 µM (inactive) | GI50 (SK-MEL-2): > 100 µM (inactive)

Cc1ccc2c(c1)C(C1Cc3cccc(C)c3C1=O)OC2=O (configuration not stated)
GI50 (MCF7): 81.1 µM (inactive) | GI50 (786-0): > 100 µM (inactive) | GI50 (HT-29): > 100 µM (inactive) | GI50 (RPMI-8226): 30.3 µM (inactive) | GI50 (SF-295): > 100 µM (inactive) | GI50 (MDA-MB-231): > 100 µM (inactive) | GI50 (LOX IMVI): 34.2 µM (inactive) | GI50 (NCI-H460): > 100 µM (inactive) | GI50 (Malme-3M): > 100 µM (inactive) | GI50 (NCI/ADR-RES): > 100 µM (inactive) | GI50 (MOLT-4): 96.4 µM (inactive) | GI50 (SK-OV-3): > 100 µM (inactive) | GI50 (HCC 2998): > 100 µM (inactive) | GI50 (RXF 393): 22.4 µM (inactive) | GI50 (OVCAR-3): > 100 µM (inactive) | GI50 (CAKI-1): > 100 µM (inactive) | GI50 (SK-MEL-28): > 100 µM (inactive) | GI50 (SNB-75): 81.5 µM (inactive) | GI50 (UO-31): > 100 µM (inactive) | GI50 (UACC-257): > 100 µM (inactive) | GI50 (SN12C): > 100 µM (inactive) | GI50 (Hs-578T): > 100 µM (inactive) | GI50 (MDA-N): > 100 µM (inactive) | GI50 (OVCAR-5): > 100 µM (inactive) | GI50 (DU-145): > 100 µM (inactive) | GI50 (SR): 60.8 µM (inactive) | GI50 (K562): 84.3 µM (inactive) | GI50 (SF-539): > 100 µM (inactive) | GI50 (SF-268): > 100 µM (inactive) | GI50 (SW-620): > 100 µM (inactive) | GI50 (SNB-19): > 100 µM (inactive) | GI50 (HCT-116): > 100 µM (inactive) | GI50 (SK-MEL-5): 56.4 µM (inactive) | GI50 (OVCAR-4): 75.3 µM (inactive) | GI50 (HL-60): 35.8 µM (inactive) | GI50 (U-251): > 100 µM (inactive) | GI50 (ACHN): > 100 µM (inactive) | GI50 (M14): > 100 µM (inactive) | GI50 (NCI-H226): 72.9 µM (inactive) | GI50 (KM12): 96.2 µM (inactive) | GI50 (CCRF-CEM): > 100 µM (inactive) | GI50 (PC-3): > 100 µM (inactive) | GI50 (NCI-H23): > 100 µM (inactive) | GI50 (HOP-62): > 100 µM (inactive) | GI50 (HCT-15): > 100 µM | GI50 (COLO 205): > 100 µM (inactive) | GI50 (A549): > 100 µM (inactive) | GI50 (BT-549): > 100 µM (inactive) | GI50 (OVCAR-8): > 100 µM (inactive) | GI50 (MDA-MB-435): 47.5 µM (inactive) | GI50 (EKVX): 67.6 µM (inactive) | GI50 (IGROV-1): > 100 µM (inactive) | GI50 (UACC-62): 94.6 µM (inactive) | GI50 (A498): 46.2 µM (inactive) | GI50 (TK-10): > 100 µM (inactive) | GI50 (T47D): > 100 µM (inactive) | GI50 (HOP-92): > 100 µM (inactive) | GI50 (NCI-H522): > 100 µM (inactive) | GI50 (SK-MEL-2): > 100 µM (inactive)

O=C(N/N=C/c1ccc([N+](=O)[O-])cc1)Nc1ccc(C(=O)O)cc1
GI50 (MCF7): 27.4 µM (inactive) | GI50 (786-0): 39.1 µM (inactive) | GI50 (HT-29): 23.8 µM (inactive) | GI50 (RPMI-8226): 18.7 µM (inactive) | GI50 (SF-295): 17.4 µM (inactive) | GI50 (MDA-MB-231): 28.6 µM (inactive) | GI50 (LOX IMVI): 31.3 µM (inactive) | GI50 (NCI-H460): 26.5 µM (inactive) | GI50 (Malme-3M): 53 µM (inactive) | GI50 (NCI/ADR-RES): 27 µM (inactive) | GI50 (MOLT-4): 22.9 µM (inactive) | GI50 (SK-OV-3): 21.3 µM (inactive) | GI50 (HCC 2998): 20.2 µM (inactive) | GI50 (RXF 393): 26.1 µM (inactive) | GI50 (OVCAR-3): 4.54 µM (inactive) | GI50 (CAKI-1): 28.2 µM (inactive) | GI50 (SK-MEL-28): 41.7 µM (inactive) | GI50 (SNB-75): 46.3 µM (inactive) | GI50 (UO-31): 22.1 µM (inactive) | GI50 (UACC-257): 28.4 µM (inactive) | GI50 (SN12C): 29.9 µM (inactive) | GI50 (Hs-578T): 45.4 µM (inactive) | GI50 (MDA-N): 30.5 µM (inactive) | GI50 (OVCAR-5): 40.6 µM (inactive) | GI50 (DU-145): 29.9 µM (inactive) | GI50 (SR): 43.5 µM (inactive) | GI50 (K562): 13.3 µM (inactive) | GI50 (SF-539): 49.3 µM (inactive) | GI50 (SF-268): 44 µM (inactive) | GI50 (SW-620): 40.9 µM (inactive) | GI50 (SNB-19): 38.6 µM (inactive) | GI50 (HCT-116): 22.3 µM (inactive) | GI50 (SK-MEL-5): 16.3 µM (inactive) | GI50 (OVCAR-4): 21.2 µM (inactive) | GI50 (HL-60): 37.2 µM (inactive) | GI50 (U-251): 28.2 µM (inactive) | GI50 (ACHN): 26.7 µM (inactive) | GI50 (M14): 37.4 µM (inactive) | GI50 (NCI-H226): 22.2 µM (inactive) | GI50 (KM12): 27.7 µM (inactive) | GI50 (CCRF-CEM): 30.6 µM (inactive) | GI50 (PC-3): 32.1 µM (inactive) | GI50 (NCI-H23): 23.2 µM (inactive) | GI50 (HOP-62): 21.6 µM (inactive) | GI50 (HCT-15): 25.5 µM | GI50 (COLO 205): 23.1 µM (inactive) | GI50 (A549): 35.3 µM (inactive) | GI50 (BT-549): 35.2 µM (inactive) | GI50 (OVCAR-8): 28.6 µM (inactive) | GI50 (MDA-MB-435): 29 µM (inactive) | GI50 (EKVX): 23.1 µM (inactive) | GI50 (IGROV-1): 33.1 µM (inactive) | GI50 (UACC-62): 26.4 µM (inactive) | GI50 (A498): 20.2 µM (inactive) | GI50 (TK-10): 34.4 µM (inactive) | GI50 (T47D): 11 µM (inactive) | GI50 (HOP-92): 16.9 µM (inactive) | GI50 (NCI-H522): 7.85 µM (inactive) | GI50 (SK-MEL-2): 25 µM (inactive)
